# Values of other authors, collected in US9248119B2, “Modified release dosage forms of xanthine oxidoreductase inhibitor or xanthine oxidase inhibitors” (Takeda Pharmaceuticals U.S.A., Inc., priority 2010, dated 2016).
# How the values were obtained:
# [1] = tested on: renal injury and hypertension associated with hyperuricemia; settings: Mazzali M, et al.; cited from earlier work
# xanthine oxidoreductase = settings: cited from earlier work
Compound,protection against renal injury and hypertension associated with hyperuricemia [1],inhibition of xanthine oxidoreductase activity (xanthine oxidoreductase)
Oc1ncnc2[nH]ncc12 [Allopurinol],prevent the renal injury and hypertension,
CCc1oc2ccccc2c1C(=O)c1cc(I)c(O)c(I)c1 [Benziodarone],lower,does not inhibit
